{"source": "patent US8076368B2", "about": "“Percutaneous absorption type cerebral protective agent” (Lead Chemical Co., Ltd,, priority 2003, dated 2011)", "test_system": "rat-transient focal cerebral ischemia model", "assay": "Rat-transient focal cerebral ischemia model (middle cerebral artery closure 2 h, TTC staining)", "format": "in vivo", "conditions": "injectable solution, intravenously two times (immediately after and 30 minutes after restoration of blood flow), 3 mg/kg"}
{"compound": "CC1=NN(c2ccccc2)C(=O)C1", "note": "[3-methyl-1-phenyl-2-pyrazolin-5-one]", "values": [{"measurement": "effect on area of cerebral infarction compared with the control group (in words)", "value": "almost same as that of the control group"}]}
